Experiment: excess molar enthalpy (molar enthalpy of mixing); xn = mol fraction of the nth substance listed
Settings: 101 kPa, Crystal, Calvet calorimetry

O=[N+]([O-])[O-].[Rb+] [rubidium nitrate] + O=[N+]([O-])[O-].[Cs+]
excess molar enthalpy [kcal/mol]
Settings | 298.15 K | 473.15 K
x1 = 0.1 | 0.12 | –
x1 = 0.16 | – | 0.0619
x1 = 0.23 | 0.263 | –
x1 = 0.32 | 0.287 | –
x1 = 0.36 | – | 0.132
x1 = 0.5 | 0.335 | 0.139
x1 = 0.57 | 0.335 | –
x1 = 0.65 | 0.311 | –
x1 = 0.68 | 0.287 | –
x1 = 0.73 | – | 0.103
x1 = 0.8 | 0.215 | –
